Laboratory results taken from ChEMBL document CHEMBL1201861, “Genomics of Drug Sensitity in Cancer screening data, Wellcome Trust Sanger Institute”.

Tests used:
CWR22R = experiment: cells; assay type: functional, cell-based, Homo sapiens;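 further: growth inhibition of 22Rv1 cells, read out with a cell viability assay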
Description: SANGER: Inhibition of human 22RV1 cell growth in a cell viability assay.

BL-41 = experiment: cells; assay type: functional, cell-based, Homo sapiens;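 further: growth inhibition of human BL-41 cells, read out with a cell viability assay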
Description: SANGER: Inhibition of human BL-41 cell growth in a cell viability assay.

MDA-MB-134-VI = experiment: cells; assay type: functional, cell-based, Homo sapiens
Description: SANGER: Inhibition of human MDA-MB-134-VI cell growth in a cell viability assay.

SW780 = experiment: cells; assay type: functional, cell-based, Homo sapiens;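 further: growth inhibition of the cells, read out with a cell viability assay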
Description: SANGER: Inhibition of human SW780 cell growth in a cell viability assay.

CHP-212 = experiment: cells; assay type: functional, cell-based, Homo sapiens
Description: SANGER: Inhibition of human CHP-212 cell growth in a cell viability assay.

CAL-62 = experiment: cells; assay type: functional, cell-based, Homo sapiens;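 further: growth inhibition of CAL-62 cells, read out with a cell viability assay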
Description: SANGER: Inhibition of human CAL-62 cell growth in a cell viability assay.

MG-63 = experiment: cells; assay type: functional, cell-based, Homo sapiens;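 further: growth inhibition of human MG-63 cells, read out with a cell viability assay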
Description: SANGER: Inhibition of human MG-63 cell growth in a cell viability assay.

EFM-19 = experiment: cells; assay type: functional, cell-based, Homo sapiens;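 further: growth inhibition of human EFM-19 cells, measured in a cell viability assay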
Description: SANGER: Inhibition of human EFM-19 cell growth in a cell viability assay.

HCC1937 = experiment: cells; assay type: functional, cell-based, Homo sapiens;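 further: growth inhibition measured with a cell viability read-out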
Description: SANGER: Inhibition of human HCC1937 cell growth in a cell viability assay.

HEC-1 = experiment: cells; assay type: functional, cell-based, Homo sapiens;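 further: growth inhibition of the cell line, read out with a cell viability assay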
Description: SANGER: Inhibition of human HEC-1 cell growth in a cell viability assay.

KYSE-450 = experiment: cells; assay type: functional, cell-based, Homo sapiens;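 further: cell growth inhibition measured by a viability assay in human KYSE-450 cells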
Description: SANGER: Inhibition of human KYSE-450 cell growth in a cell viability assay.

NCI-H1793 = experiment: cells; assay type: functional, cell-based, Homo sapiens;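 further: cell growth inhibition, read out by a cell viability assay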
Description: SANGER: Inhibition of human NCI-H1793 cell growth in a cell viability assay.

OPM-2 = experiment: cells; assay type: functional, cell-based, Homo sapiens;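 further: growth of OPM-2 cells measured with a viability assay, IC50 for suppression of proliferation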
Description: SANGER: Inhibition of human OPM-2 cell growth in a cell viability assay.

NCI-H1522 = experiment: cells; assay type: functional, cell-based, Homo sapiens;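 further: growth inhibition of NCI-H1522 cells, read out with a cell viability assay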
Description: SANGER: Inhibition of human NCI-H1522 cell growth in a cell viability assay.

CAL-27 = experiment: cells; assay type: functional, cell-based, Homo sapiens;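 further: Viability-based readout, IC50 reflecting inhibition of CAL-27 cell growth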
Description: SANGER: Inhibition of human CAL-27 cell growth in a cell viability assay.

CESS = experiment: SANGER: Inhibition of human CESS cell growth in a cell viability assay.; assay type: functional, cell-based
KYSE-140 = experiment: cells; assay type: functional, cell-based, Homo sapiens;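 further: cell viability assay measuring growth inhibition in human KYSE-140 cells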
Description: SANGER: Inhibition of human KYSE-140 cell growth in a cell viability assay.

MDA-MB-231 = experiment: cells; assay type: functional, cell-based, Homo sapiens
Description: SANGER: Inhibition of human MDA-MB-231 cell growth in a cell viability assay.

Ca9-22 = experiment: cells; assay type: functional, cell-based, Homo sapiens;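 further: growth inhibition of Ca9-22 cells, read out with a cell viability assay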
Description: SANGER: Inhibition of human Ca9-22 cell growth in a cell viability assay.

GP5d = experiment: cells; assay type: functional, cell-based, Homo sapiens;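 further: growth inhibition of human GP5d cells, read out with a cell viability assay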
Description: SANGER: Inhibition of human GP5d cell growth in a cell viability assay.

HCC1599 = experiment: cells; assay type: functional, cell-based, Homo sapiens;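 further: growth inhibition of HCC1599 cells, read out in a cell viability assay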
Description: SANGER: Inhibition of human HCC1599 cell growth in a cell viability assay.

769-P = experiment: cells; assay type: functional, cell-based, Homo sapiens
Description: SANGER: Inhibition of human 769-P cell growth in a cell viability assay.

LK-2 = experiment: cells; assay type: functional, cell-based, Homo sapiens;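 further: growth inhibition of LK-2 cells, read out with a viability assay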
Description: SANGER: Inhibition of human LK-2 cell growth in a cell viability assay.

MeWo = experiment: cells; assay type: functional, cell-based, Homo sapiens;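 further: growth inhibition of MeWo cells, determined by a cell viability readout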
Description: SANGER: Inhibition of human Mewo cell growth in a cell viability assay.

PA-1 = experiment: cells; assay type: functional, cell-based, Homo sapiens;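 further: IC50 for suppression of PA-1 cell proliferation, determined with a cell viability read-out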
Description: SANGER: Inhibition of human PA-1 cell growth in a cell viability assay.

GMS-10 = experiment: cells; assay type: functional, cell-based, Homo sapiens;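 further: growth inhibition of GMS-10 cells, read out as cell viability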
Description: SANGER: Inhibition of human GMS-10 cell growth in a cell viability assay.

CAL-39 = experiment: cells; assay type: functional, cell-based, Homo sapiens;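 further: cell viability assay measuring growth inhibition of CAL-39 cells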
Description: SANGER: Inhibition of human CAL-39 cell growth in a cell viability assay.

BL-70 = experiment: SANGER: Inhibition of human BL-70 cell growth in a cell viability assay.; assay type: functional, cell-based
SK-MEL-30 = experiment: cells; assay type: functional, cell-based, Homo sapiens;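 further: growth inhibition of SK-MEL-30 cells, determined with a cell viability assay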
Description: SANGER: Inhibition of human SK-MEL-30 cell growth in a cell viability assay.

WM-115 = experiment: cells; assay type: functional, cell-based, Homo sapiens
Description: SANGER: Inhibition of human WM-115 cell growth in a cell viability assay.

NCI-H1693 = experiment: cells; assay type: functional, cell-based, Homo sapiens;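 further: growth inhibition of the human cell line, read out with a cell viability assay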
Description: SANGER: Inhibition of human NCI-H1693 cell growth in a cell viability assay.

SK-HEP1 = experiment: cells; assay type: functional, cell-based, Homo sapiens, SK-HEP-1;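 further: cell viability readout used to quantify reduction in proliferation of human SK-HEP-1 cells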
Description: SANGER: Inhibition of human SK-HEP-1 cell growth in a cell viability assay.

TE-15 = experiment: cells; assay type: functional, cell-based, Homo sapiens;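 further: cell viability readout of growth inhibition in TE-15 cells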
Description: SANGER: Inhibition of human TE-15 cell growth in a cell viability assay.

SJRH30 = experiment: cells; assay type: functional, cell-based, Homo sapiens;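 further: growth inhibition of human SJRH30 cells, read out with a cell viability assay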
Description: SANGER: Inhibition of human SJRH30 cell growth in a cell viability assay.

CAL-51 = experiment: cells; assay type: functional, cell-based, Homo sapiens;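 further: human CAL-51 cell line, growth inhibition read out via a cell viability assay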
Description: SANGER: Inhibition of human CAL-51 cell growth in a cell viability assay.

HuP-T3 = experiment: cells; assay type: functional, cell-based, Homo sapiens;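 further: HuP-T3 cell growth inhibition, read out with a cell viability assay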
Description: SANGER: Inhibition of human HuP-T3 cell growth in a cell viability assay.

DU-145 = experiment: cells; assay type: functional, cell-based, Homo sapiens
Description: SANGER: Inhibition of human DU-145 cell growth in a cell viability assay.

SIMA = experiment: cells; assay type: functional, cell-based, Homo sapiens;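 further: growth inhibition of SIMA cells, measured with a cell viability readout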
Description: SANGER: Inhibition of human SIMA cell growth in a cell viability assay.

MONO-MAC-6 = experiment: cells; assay type: functional, cell-based, Homo sapiens;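 further: cell viability assay measuring growth inhibition of human MONO-MAC-6 cells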
Description: SANGER: Inhibition of human MONO-MAC-6 cell growth in a cell viability assay.

NCI-H1623 = experiment: cells; assay type: functional, cell-based, Homo sapiens;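 further: cell viability assay used as the read-out for growth inhibition of NCI-H1623 cells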
Description: SANGER: Inhibition of human NCI-H1623 cell growth in a cell viability assay.

MIA PaCa-2 = experiment: cells; assay type: functional, cell-based, Homo sapiens;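 further: growth inhibition of MIA PaCa-2 cells, read out with a cell viability assay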
Description: SANGER: Inhibition of human MIA-PaCa-2 cell growth in a cell viability assay.

HGC-27 = experiment: cells; assay type: functional, cell-based, Homo sapiens;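 further: growth inhibition of human HGC-27 cells, read out in a cell viability assay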
Description: SANGER: Inhibition of human HGC-27 cell growth in a cell viability assay.

SK-MEL-24 = experiment: cells; assay type: functional, cell-based, Homo sapiens;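 further: growth inhibition read out by a cell viability assay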
Description: SANGER: Inhibition of human SK-MEL-24 cell growth in a cell viability assay.

M14 = experiment: cells; assay type: functional, cell-based, Homo sapiens;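 further: growth inhibition of M14 cells, read out with a cell viability assay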
Description: SANGER: Inhibition of human M14 cell growth in a cell viability assay.

ECC4 = experiment: cells; assay type: functional, cell-based, Homo sapiens;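 further: growth inhibition of ECC4 cells, read out with a cell viability assay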
Description: SANGER: Inhibition of human ECC4 cell growth in a cell viability assay.

LCLC-103H cell line = experiment: cells; assay type: functional, cell-based, Homo sapiens
Description: SANGER: Inhibition of human LCLC-103H cell growth in a cell viability assay.

A673 = experiment: cells; assay type: functional, cell-based, Homo sapiens;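 further: growth inhibition of human A673 cells, read out through a cell viability assay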
Description: SANGER: Inhibition of human A673 cell growth in a cell viability assay.

BLEOMYCIN
IC50 (CWR22R; cwr22r): 7.33 µM | IC50 (BL-41; bl-41): 14.2 µM | IC50 (MDA-MB-134-VI; mda-mb-134-vi): 340 µM | IC50 (SW780; sw780): 8140 µM | IC50 (CHP-212; chp-212): 0.148 µM | IC50 (CAL-62; cal-62): 3.34 µM | IC50 (MG-63; mg-63): 1.49 µM | IC50 (EFM-19; efm-19): 0.0148 µM | IC50 (HCC1937; hcc1937): 0.000254 µM | IC50 (HEC-1; hec-1): 27.4 µM | IC50 (KYSE-450; kyse-450): 1.93 µM | IC50 (NCI-H1793; nci-h1793): 27.2 µM | IC50 (OPM-2; opm-2): 104 µM | IC50 (NCI-H1522; nci-h1522): 2450 µM | IC50 (CAL-27; cal-27): 8.07 µM | IC50 (CESS; cess): 0.000546 µM | IC50 (KYSE-140; kyse-140): 3.9 µM | IC50 (MDA-MB-231; mda-mb-231): 0.273 µM | IC50 (Ca9-22; ca9-22): 0.746 µM | IC50 (GP5d; gp5d): 15.6 µM | IC50 (HCC1599; hcc1599): 3.37 µM | IC50 (769-P; 769-p): 0.123 µM | IC50 (LK-2; lk-2): 1.69 µM | IC50 (MeWo; mewo): 148 µM | IC50 (PA-1; pa-1): 2.02 µM | IC50 (GMS-10; gms-10): 2110 µM | IC50 (CAL-39; cal-39): 0.000315 µM | IC50 (BL-70; bl-70): 1650 µM | IC50 (SK-MEL-30; sk-mel-30): 0.377 µM | IC50 (WM-115; wm-115): 7.09 µM | IC50 (NCI-H1693; nci-h1693): 16.6 µM | IC50 (SK-HEP1; sk-hep-1): 0.415 µM | IC50 (TE-15; te-15): 3.22 µM | IC50 (SJRH30; sjrh30): 0.414 µM | IC50 (CAL-51; cal-51): 0.099 nM | IC50 (HuP-T3; hup-t3): 4.79 µM | IC50 (DU-145; du-145): 0.823 µM | IC50 (SIMA; sima): 6.93 µM | IC50 (MONO-MAC-6; mono-mac-6): 4.59 µM | IC50 (NCI-H1623; nci-h1623): 39 µM | IC50 (MIA PaCa-2; mia paca-2): 0.111 µM | IC50 (HGC-27; hgc-27): 2.84 µM | IC50 (SK-MEL-24; sk-mel-24): 23.3 µM | IC50 (M14; m14): 3.22 µM | IC50 (ECC4; ecc4): 56.7 µM | IC50 (LCLC-103H cell line; lclc-103h): 0.144 µM | IC50 (A673; a673): 10.5 µM

O=C(O)c1ccc(-c2c[nH]c3ncc(-c4ccccc4)cc23)cc1C1CCCC1 [GSK-650394]
IC50 (CWR22R; Homo sapiens, 22Rv1): > 16 µM | IC50 (BL-41; Homo sapiens, BL-41): > 16 µM | IC50 (MDA-MB-134-VI; Homo sapiens, MDA-MB-134-VI): > 16 µM | IC50 (SW780; Homo sapiens, SW780): > 16 µM | IC50 (CHP-212; Homo sapiens, CHP-212): > 16 µM | IC50 (CAL-62; Homo sapiens, CAL-62): 4.77 µM | IC50 (MG-63; Homo sapiens, MG-63): > 16 µM | IC50 (EFM-19; Homo sapiens, EFM-19): > 16 µM | IC50 (HCC1937; Homo sapiens, HCC1937): > 16 µM | IC50 (HEC-1; Homo sapiens, HEC-1): > 16 µM | IC50 (KYSE-450; Homo sapiens, KYSE-450): 5.6 µM | IC50 (NCI-H1793; Homo sapiens, NCI-H1793): > 16 µM | IC50 (OPM-2; Homo sapiens, OPM-2): > 16 µM | IC50 (NCI-H1522; Homo sapiens, NCI-H1522): > 16 µM | IC50 (CAL-27; Homo sapiens, CAL-27): 5.33 µM | IC50 (CESS; Homo sapiens, CESS): > 16 µM | IC50 (KYSE-140; Homo sapiens, KYSE-140): 8.09 µM | IC50 (MDA-MB-231; Homo sapiens, MDA-MB-231): > 16 µM | IC50 (Ca9-22; Homo sapiens, Ca9-22): > 16 µM | IC50 (GP5d; Homo sapiens, GP5d): > 16 µM | IC50 (HCC1599; Homo sapiens, HCC1599): > 16 µM | IC50 (769-P; Homo sapiens, 769-P): 4.89 µM | IC50 (LK-2; Homo sapiens, LK-2): > 16 µM | IC50 (MeWo; Homo sapiens, MeWo): > 16 µM | IC50 (PA-1; Homo sapiens, PA-1): 3.33 µM | IC50 (GMS-10; Homo sapiens, GMS-10): > 16 µM | IC50 (CAL-39; Homo sapiens, CAL-39): 9.31 µM | IC50 (BL-70; Homo sapiens, BL-70): > 16 µM | IC50 (SK-MEL-30; Homo sapiens, SK-MEL-30): 7.97 µM | IC50 (WM-115; Homo sapiens, WM-115): > 16 µM | IC50 (NCI-H1693; Homo sapiens, NCI-H1693): > 16 µM | IC50 (SK-HEP1; Homo sapiens, SK-HEP1): 6.34 µM | IC50 (TE-15; Homo sapiens, TE-15): 2.59 µM | IC50 (SJRH30; Homo sapiens, SJRH30): > 16 µM | IC50 (CAL-51; Homo sapiens, CAL-51): 5360 nM | IC50 (HuP-T3; Homo sapiens, HuP-T3): > 16 µM | IC50 (DU-145; Homo sapiens, DU-145): > 16 µM | IC50 (SIMA; Homo sapiens, SIMA): > 16 µM | IC50 (MONO-MAC-6; Homo sapiens, MONO-MAC-6): 1.18 µM | IC50 (NCI-H1623; Homo sapiens, NCI-H1623): > 16 µM | IC50 (MIA PaCa-2; Homo sapiens, MIA PaCa-2): 7.08 µM | IC50 (HGC-27; Homo sapiens, HGC-27): 1.31 µM | IC50 (SK-MEL-24; Homo sapiens, SK-MEL-24): > 16 µM | IC50 (M14; Homo sapiens, M14): > 16 µM | IC50 (ECC4; Homo sapiens, ECC4): > 16 µM | IC50 (LCLC-103H cell line; Homo sapiens, LCLC-103H): 3.91 µM | IC50 (A673; Homo sapiens, A673): > 16 µM

COc1cccc2c1C(=O)c1c(O)c3c(c(O)c1C2=O)C[C@@](O)(C(=O)CO)C[C@@H]3O[C@H]1C[C@H](N)[C@H](O)[C@H](C)O1 [DOXORUBICIN]
IC50 (CWR22R; Homo sapiens, 22Rv1): 0.0212 µM | IC50 (BL-41; Homo sapiens, BL-41): 0.122 µM | IC50 (MDA-MB-134-VI; Homo sapiens, MDA-MB-134-VI): > 1.02 µM | IC50 (SW780; Homo sapiens, SW780): > 1.02 µM | IC50 (CHP-212; Homo sapiens, CHP-212): 0.035 µM | IC50 (CAL-62; Homo sapiens, CAL-62): 0.0328 µM | IC50 (MG-63; Homo sapiens, MG-63): 0.0221 µM | IC50 (EFM-19; Homo sapiens, EFM-19): 0.478 µM | IC50 (HCC1937; Homo sapiens, HCC1937): 0.116 µM | IC50 (HEC-1; Homo sapiens, HEC-1): 0.183 µM | IC50 (KYSE-450; Homo sapiens, KYSE-450): 0.0447 µM | IC50 (NCI-H1793; Homo sapiens, NCI-H1793): 0.901 µM | IC50 (OPM-2; Homo sapiens, OPM-2): 0.502 µM | IC50 (NCI-H1522; Homo sapiens, NCI-H1522): > 1.02 µM | IC50 (CAL-27; Homo sapiens, CAL-27): 0.0326 µM | IC50 (CESS; Homo sapiens, CESS): 0.0394 µM | IC50 (KYSE-140; Homo sapiens, KYSE-140): 0.0504 µM | IC50 (MDA-MB-231; Homo sapiens, MDA-MB-231): > 1.02 µM | IC50 (Ca9-22; Homo sapiens, Ca9-22): 0.0501 µM | IC50 (GP5d; Homo sapiens, GP5d): 0.0491 µM | IC50 (HCC1599; Homo sapiens, HCC1599): 0.0725 µM | IC50 (769-P; Homo sapiens, 769-P): 0.0208 µM | IC50 (LK-2; Homo sapiens, LK-2): 0.581 µM | IC50 (MeWo; Homo sapiens, MeWo): > 1.02 µM | IC50 (PA-1; Homo sapiens, PA-1): 0.0445 µM | IC50 (GMS-10; Homo sapiens, GMS-10): > 1.02 µM | IC50 (CAL-39; Homo sapiens, CAL-39): 0.0982 µM | IC50 (BL-70; Homo sapiens, BL-70): 0.342 µM | IC50 (SK-MEL-30; Homo sapiens, SK-MEL-30): 0.0356 µM | IC50 (WM-115; Homo sapiens, WM-115): > 1.02 µM | IC50 (NCI-H1693; Homo sapiens, NCI-H1693): 0.29 µM | IC50 (SK-HEP1; Homo sapiens, SK-HEP1): 0.0259 µM | IC50 (TE-15; Homo sapiens, TE-15): 0.0241 µM | IC50 (SJRH30; Homo sapiens, SJRH30): 0.173 µM | IC50 (CAL-51; Homo sapiens, CAL-51): 17.3 nM | IC50 (HuP-T3; Homo sapiens, HuP-T3): 0.166 µM | IC50 (DU-145; Homo sapiens, DU-145): 0.0737 µM | IC50 (SIMA; Homo sapiens, SIMA): 0.382 µM | IC50 (MONO-MAC-6; Homo sapiens, MONO-MAC-6): 0.154 µM | IC50 (NCI-H1623; Homo sapiens, NCI-H1623): 0.605 µM | IC50 (MIA PaCa-2; Homo sapiens, MIA PaCa-2): 0.0342 µM | IC50 (HGC-27; Homo sapiens, HGC-27): 0.0136 µM | IC50 (SK-MEL-24; Homo sapiens, SK-MEL-24): 0.914 µM | IC50 (M14; Homo sapiens, M14): 0.905 µM | IC50 (ECC4; Homo sapiens, ECC4): > 1.02 µM | IC50 (LCLC-103H cell line; Homo sapiens, LCLC-103H): 0.0205 µM | IC50 (A673; Homo sapiens, A673): 0.216 µM
